According to patent publication US8674097B2, “Quinoxalinedione derivatives useful as activators of AMPK-activated protein kinase” (Merck Patent GmbH, priority 2008, dated 2014):

Legend:
[1] = molecular target: T1, AMPK protein (recombinant α1β1γ2) (Homo sapiens, UniProt Q13131+Q9UGJ0+Q9Y478); assay: AMPK enzymatic activity (Delfia, AMARA peptide); assay type: biochemical; details: compound 30 μM vs AMP 30 μM; 125 μM ATP; direct activator if ratio is 90% or higher
T1 construct: made in house; host or cells: E. coli
Procedure: The following biological test allows the determination of the efficacy of such compounds of formula (I) onto AMPK protein (recombinant α1β1γ2).
Human recombinant AMPK enzyme was expressed in E. Coli and was reactivated in vitro by LKB1 prior to enzyme activity determination. AMPK enzyme activities were assayed by using A Delfia technology. AMPK enzyme activities were carried out in microtiter plates (50 mM Hepes buffer, pH 7.4 with 125 μM ATP respectively) in the presence of a synthetic peptide substrate (AMARAASAAALARRR, the “AMARA” peptide) and activators in serial dilutions. Reactions were initiated by the addition of AMPK (50-100 ng). Following mixing, the plates were incubated for 30 min at room temperature. Enzyme activity was assayed by using an anti-phosphoserine antibody to measure the quantity of phosphate incorporated into the AMARAA.
Ratio between the % of control (basal activity) of compound of formula (I) at 30 μM and the % of control (basal activity) of AMP (natural […]) at 30 μM.
Compounds of formula (I) are considered as direct activator of AMPK if the ratio is 90% or higher.

ob/ob and db/db mice = details: 8 day AICAR administration; cited from earlier work

T1 sequence (Q13131 whole entry): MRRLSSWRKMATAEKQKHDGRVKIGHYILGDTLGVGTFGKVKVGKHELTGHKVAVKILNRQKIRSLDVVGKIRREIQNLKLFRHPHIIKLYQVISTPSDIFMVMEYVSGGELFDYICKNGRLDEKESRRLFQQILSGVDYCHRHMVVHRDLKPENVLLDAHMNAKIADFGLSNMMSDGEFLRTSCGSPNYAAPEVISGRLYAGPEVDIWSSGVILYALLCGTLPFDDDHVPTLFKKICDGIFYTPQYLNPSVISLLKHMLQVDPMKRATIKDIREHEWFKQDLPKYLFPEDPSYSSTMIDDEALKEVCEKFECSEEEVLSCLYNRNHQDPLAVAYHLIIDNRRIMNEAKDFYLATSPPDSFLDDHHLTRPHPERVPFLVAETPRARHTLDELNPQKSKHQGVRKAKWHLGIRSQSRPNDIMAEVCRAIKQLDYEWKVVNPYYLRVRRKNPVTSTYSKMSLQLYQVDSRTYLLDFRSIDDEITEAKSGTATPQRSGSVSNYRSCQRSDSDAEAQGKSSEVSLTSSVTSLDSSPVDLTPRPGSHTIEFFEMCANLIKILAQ
T1 sequence (Q9Y478 whole entry): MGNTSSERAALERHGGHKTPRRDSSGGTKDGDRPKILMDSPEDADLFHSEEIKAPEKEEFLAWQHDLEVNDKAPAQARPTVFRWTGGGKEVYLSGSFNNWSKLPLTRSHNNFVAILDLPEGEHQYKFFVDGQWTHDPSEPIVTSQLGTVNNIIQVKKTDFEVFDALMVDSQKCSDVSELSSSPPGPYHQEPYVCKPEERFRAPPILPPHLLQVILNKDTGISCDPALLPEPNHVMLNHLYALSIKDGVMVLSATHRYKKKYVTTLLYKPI
T1 sequence (Q9UGJ0 whole entry): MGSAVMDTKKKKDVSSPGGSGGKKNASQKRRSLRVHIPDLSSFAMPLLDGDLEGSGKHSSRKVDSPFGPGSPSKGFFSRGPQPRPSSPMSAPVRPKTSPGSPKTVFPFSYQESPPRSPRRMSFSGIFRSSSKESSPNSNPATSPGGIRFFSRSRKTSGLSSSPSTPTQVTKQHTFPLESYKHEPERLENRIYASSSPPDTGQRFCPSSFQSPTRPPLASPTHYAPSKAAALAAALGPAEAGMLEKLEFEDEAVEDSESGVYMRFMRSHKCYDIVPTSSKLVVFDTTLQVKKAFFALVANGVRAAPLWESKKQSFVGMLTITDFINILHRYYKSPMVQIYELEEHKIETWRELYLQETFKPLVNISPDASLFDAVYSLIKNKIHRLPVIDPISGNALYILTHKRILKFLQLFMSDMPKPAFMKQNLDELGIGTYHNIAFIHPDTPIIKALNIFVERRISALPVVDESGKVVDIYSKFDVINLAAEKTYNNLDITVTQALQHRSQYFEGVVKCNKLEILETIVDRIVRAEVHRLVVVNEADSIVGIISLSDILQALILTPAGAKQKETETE

Row | Compound | Activity: ratio between the % of control (basal activity) of compound at 30 μM and the % of control (basal activity) of AMP at 30 μM [1] [%] | reduction of blood glucose (ob/ob and db/db mice) [%]
1 | O=c1[nH]c2cccc(O)c2[nH]c1=O [5-hydroxy-1,4-dihydroquinoxaline-2,3-dione] | 130 | 
2 | NC(=O)c1ncn([C@@H]2O[C@H](CO)[C@@H](O)[C@H]2O)c1N [AICAR] |  | 35
3 | CC(=O)Oc1cccc2[nH]c(=O)c(=O)[nH]c12 [Acetic acid 2,3-dioxo-1,2,3,4-tetrahydro-quinoxalin-5-yl ester] | 120 | 
